Assay results reported in patent US11197914B2, “GLP-1R/GCGR dual target agonist polypeptide for treatment of fatty liver diseases, hyperlipemia and arteriosclerosis” (Shenzhen Turier Biotech Co., Ltd., priority 2016, dated 2021).
*1 amine or outer side, *2 acyl side, *3 side chain or, on linkers, in order; H or OH if unused. Primed or numbered codes have the meaning given here. Where no end group is shown, it is not given here. Side-chain parts run from the residue outwards. [ ]: non-standard residue; d: D form. The star is where a group is joined. γGlu = O=C(O)[C@H](CCC(=O)[*:2])N[*:1]; Palmitoyl = CCCCCCCCCCCCCCCC(=O)*; PEG2′ = not defined here

Experiments:
[1] = test system: CCl4-induced hepatic fibrosis mice; experiment: CCl4-induced hepatic fibrosis in mice; type: in vivo, C57 mice; conditions: 500 μg/kg subcutaneous once every two days, 6 weeks
Procedure: 6-8-week-old C57 mice with body weight of 20-25 g at SPF level were provided by Guangdong Medical Laboratory Animal Center and tested by SPF level laboratory in Laboratory Animal Center of Guangdong Pharmaceutical University. C57 mice were divided into control group, hepatic fibrosis model group and treatment group, 8 mice for each group. A mouse was subject to intraperitoneal injection with 20% CCl4 (2 mL/kg, diluted with olive oil at ratio of 1:4) twice a week for continuous 6 weeks to form a stable hepatic fibrosis animal model. For the treatment group, one of subcutaneous injection compounds 2, 6 and 22 with 500 μg/kg of body weight was used respectively once every two days for continuous 6 weeks. Olive oil with same volume and same frequency was administered for the control group and stopped until the end of 6-week experiment. After the end of the experiment, the mice were subject to anesthesia to collect serum and liver specimens. The liver was fixed with 10% formalin and embedded with paraffin.

[2] = test system: db/db diabetic obese mice; type: in vivo; conditions: 10 μg/mouse subcutaneous once every two days, 18 days
Procedure: 12-week-old db/db diabetic obese mice were randomly grouped into 3 groups (12-hour fasting before grouping), 6 mice in each group. Mice in each group were injected subcutaneously at a dose of 10 μg/mouse, and mice in the blank group were injected subcutaneously with PBS. The volume for each group was 0.25 ml/mouse once every two days (at 48-hour interval) for 18 days. At the end of the experiment, blood was taken from the orbital venous plexus of each mouse to measure glycosylated hemoglobin (HbAlc), insulin (INS), triglyceride (TG) and total cholesterol (TC) levels in the serum of the mouse. The liver, pancreas, heart, lungs and spleen were taken for HE pathological staining at the same time. GraphPad Prismversion6 software was used for statistical analysis.

[3] = test system: high fat diet-induced hyperlipidemic mice; experiment: High fat diet-induced NAFLD and hyperlipemia in mice; type: in vivo, C57 mice; conditions: 500 μg/kg subcutaneous once every two days, 12 weeks
Procedure: 6-8-week-old C57 mice with body weight of 20-25 g at SPF level were provided by Guangdong Medical Laboratory Animal Center and tested by SPF level laboratory in Laboratory Animal Center of Guangdong Pharmaceutical University. C57 mice were divided into control group, hepatic fibrosis model group and treatment group, 8 mice for each group. The mice were fed with high fat diet (HFD) for 12 weeks. For the treatment group, subcutaneous injection compounds 2 and 6 with 500 μg/kg of body weight were used once every two days for continuous 12 weeks. PBS with same volume and same frequency was administered for the control group. After the end of the experiment, the mice were subject to anesthesia to collect serum and liver specimens.

[4] = test system: Hepatic stellate cell strain LX-2; experiment: In vitro inhibition of hepatic fibrosis: expression of LX-2 cell activation marker α-SMA (Western Blot, α-SMA/β-actin); type: cell-based, human; conditions: LX-2 cells
Procedure: Hepatic stellate cell strain LX-2 was selected to study and observe the effect of different doses of test substances on the expression of LX-2 cell activation marker […]. Hepatic stellate cell LX-2 was laid on 35 mm cell culture plate, cultured with DMEM (high glucose)+10% FBS+1% double-antibody culture medium (Thermo Fisher), placed overnight when the cells grew to 70% convergence at 37° C. and under the condition of 5% CO2, and treated with the above compounds 1-37 (dissolved in PBS) for 48 hours the next day morning to extract cell protein, carry out Western Blot, and take β-actin as internal reference and analyze the expression quantities of α-SMA and β-actin by a gray level of Image J 1.50i. PBS with the same volume as that in experimental group was added in negative control. […] The integrating gray level of α-SMA/β-actin in the negative control group was 100% to analyze the in vitro inhibition activity of hepatic fibrosis of tested polypeptide.

## His-(D-Ser)-Gln-Gly-Thr-Phe-Thr-Ser-Asp-Tyr-Ser-Lys-Tyr-Leu-Asp-Lys(PEG2-PEG2-γGlu-CO(CH2)14CH3)-Arg-Arg-Ala-Gln-Asp-Phe-Val-Gln-Trp-Leu-Met-Asn-Thr-Gly-Gly-Pro-Ser-Ser-Gly-Ala-Pro-Pro-Pro-Ser-NH2 (H[dS]QGTFTSDYSKYLDK([PEG2′-PEG2′-γGlu-Palmitoyl])RRAQDFVQWLMNTGGPSSGAPPPS-NH2) [Compound 6]
[1]
  ALT level of serum: obviously reduce
  CCl4-induced liver injury and fibrosis stage (HE, Sirius Red): obviously improved
[2]
  Atrophy lesions of pancreatic islets (HE staining): significantly improve
  Inhibition of liver lipoid vacuolar degeneration and lipid inflammation, comparison between compounds: better inhibition effect
  Liver lipoid vacuolar degeneration and lipid inflammation (HE staining): significantly inhibit
  Total cholesterol (TC) level in serum: obviously inhibit
  Triglyceride (TG) level in serum: obviously inhibit
[2]; vs blank group
  Glycosylated hemoglobin (HbAlc) level in serum: significantly reduced
  Insulin (INS) level in serum: up-regulated
[3]
  Fatty liver complicated by hepatic fibrosis (Sirius red): effectively inhibit fatty liver complicated by hepatic fibrosis
  HFD-induced increase of body weight: effectively inhibit
  Hepatic triglyceride (TG) content: effectively reduce
  Liver lipid deposition (Oil Red O): effectively reduce
  Liver lipoid degeneration and non-alcoholic steatohepatitis (liver tissue biopsy): inhibit liver lipoid degeneration and non-alcoholic steatohepatitis
  Treatment effect on liver lipid deposition and hepatic TG compared with Liraglutide: obviously better than Liraglutide
[3]; compared with liraglutide
  Control of body weight, comparison between treatments: most obviously
[4]
  Inhibition of LX-2 cell activation marker α-SMA (in words, from Table 2): obviously reduce
[4]; 1 μM, 48 hours, negative control = 100%
  Relative expression of α-SMA (α-SMA/β-actin, %): 41.19%
